Test results as given in ChEMBL document CHEMBL5506011, “Discovery of novel and selective farnesoid X receptor antagonists through structure-based virtual screening, preliminary structure-activity relationship study, and biological evaluation” (Eur J Med Chem, 2024).

Legend:
Type in all cases: organism-based
[1] = Toxicity in male C57BL/6 mouse assessed as total bile acid level in serum at 20 mg/kg, ip measured after 4 days; conditions: in vivo, 96 h, time 4 day
[2] = Toxicity in male C57BL/6 mouse assessed as aspartate transaminase (AST) level in serum at 20 to 40 mg/kg, po measured after 4 days; conditions: in vivo, 96 h, dose 20-40 mg/kg, time 4 day
[3] = Toxicity in male C57BL/6 mouse assessed as aspartate transaminase (AST) level in serum at 20 mg/kg, ip measured after 4 days; conditions: in vivo, 96 h, time 4 day
[4] = Toxicity in male C57BL/6 mouse assessed as total bile acid level in serum at 20 to 40 mg/kg, po measured after 4 days; conditions: in vivo, 96 h, dose 20-40 mg/kg, time 4 day
[5] = Toxicity in male C57BL/6 mouse assessed as alanine transaminase (ALT) level in serum at 20 mg/kg, ip measured after 4 days; conditions: in vivo, 96 h, time 4 day

Measured: Activity

Cc1ccc(C)c(OCCCC(C)(C)C(=O)NCC(=O)c2ccc(O)cc2)c1
Non-Toxic: all assays above
